These results are taken from publication PMC12112332, “Characterization of Novel and Known Activators of Cannabinoid Receptor Subtype 2 Reveals Mixed Pharmacology That Differentiates Mycophenolate Mofetil and GW-842,166X from MDA7” (International Journal of Molecular Sciences, 2025).

Where two headings read alike, the source gives them in different places.

The target in one assay is T1, rCB1 (Rattus norvegicus, UniProt P20272).
T1 construct: expressed in transfected cells; host or cells: HEK293 cells stably co-expressing GIRK channels
T1 sequence (P20272 whole entry): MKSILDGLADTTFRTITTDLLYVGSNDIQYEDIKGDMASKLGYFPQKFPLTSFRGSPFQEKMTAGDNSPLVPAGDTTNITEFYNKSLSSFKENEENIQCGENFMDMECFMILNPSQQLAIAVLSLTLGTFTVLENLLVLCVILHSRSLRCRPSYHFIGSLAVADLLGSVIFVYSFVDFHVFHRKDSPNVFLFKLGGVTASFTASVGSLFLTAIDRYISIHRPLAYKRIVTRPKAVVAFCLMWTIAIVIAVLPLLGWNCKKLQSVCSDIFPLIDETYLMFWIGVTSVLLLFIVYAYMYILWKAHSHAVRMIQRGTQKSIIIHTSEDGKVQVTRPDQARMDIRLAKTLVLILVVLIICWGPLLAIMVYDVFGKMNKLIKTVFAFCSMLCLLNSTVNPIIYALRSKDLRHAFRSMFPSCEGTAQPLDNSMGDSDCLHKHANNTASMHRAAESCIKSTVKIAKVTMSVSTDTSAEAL
As to the kind of experiment: Thallium flux assay in HEK/GIRK cells expressing rCB1. Type of assay: cell-based. The settings on record: for rCB1 GIRK (−) 2-AG % Max ± SEM / rCB1 GIRK (+) 2-AG % Max ± SEM: % of maximal 2-AG response. The protocol: The cell lines used in this manuscript were generated in-house. Their preparation is described in detail in Qi et al.. Cells were used for 10 passages for experiments and day-to-day signals in both the CB2 and CB1 lines were stable across this passage number. Human Embryonic Kidney (HEK) 293 cells stably expressing rCB2 and the G protein Gqi9 were maintained in Dulbecco’s modified Eagle media (DMEM) containing 10% FBS, 1× antibiotic/antimycotic, 20 mM HEPES, 1 mM sodium pyruvate, 2 mM L-glutamine, 1× non-essential amino acids, 700 µg/mL G418 sulfate, and 0.6 µg/mL puromycin. HEK cells stably expressing rCB2 or rCB1 and the G protein inwardly rectifying potassium channel (GIRK) were maintained in DMEM/F12 containing 10% FBS, 1× antibiotic/antimycotic, 20 mM HEPES, 1 mM sodium pyruvate, 2 mM L-glutamine, 1× non-essential amino acids, 700 µg/mL G418 sulfate, and 0.6 µg/mL puromycin. Cells were monitored by periodic PCR detection using the LookOut Mycoplasma PCR Detection Kit (Sigma-Aldrich, St Louis, MO, USA) to eliminate potential mycoplasma infection. Reagents were obtained from Invitrogen (Waltham, MA, USA) unless otherwise noted.
Thallium flux assays were performed as previously described in Niswender et al., 2008 [31]. HEK/GIRK cells stably expressing rCB1 or rCB2 (15,000 cells/20 µL/well) were seeded in 384-well, poly-D-lysine coated assay plates (Corning BioCoat®) (Corning Inc., Corning, NY, USA) and incubated overnight at 37 °C in the presence of 5% CO2. The next day, the medium was removed and replaced with 20 μL of 1.2 µM thallium-sensitive dye Thallos-AM (ION biosciences, San Marcos, TX, USA), prepared as a DMSO stock solution mixed in a 1:1 ratio with 10% (w/v) pluronic acid F-127, and diluted in assay buffer (Hank’s balanced salt solution, 20 mM HEPES, pH 7.4). Following 1 h at room temperature, the dye solution was removed and replaced with 20 µL assay buffer. For screening of the FDA-Approved Drug Collection, 10 mM DMSO stocks of library compounds were transferred to daughter plates using an Echo acoustic plate reformatter (Labcyte, Sunnyvale, CA, USA) and diluted in assay buffer to a 2× final concentration. For concentration–response curve experiments, compounds were serially diluted 1:3 into 10-point concentration–response curves in DMSO, transferred to daughter plates using the Echo or Bravo Automated Liquid Handling Platform (Agilent Technologies, Santa Clara, CA, USA), and diluted in assay buffer to a 2× final concentration. Thallium flux was measured using the Hamamatsu FDSS/μCELL Kinetic Plate Imager (Bridgewater, NJ, USA). After the establishment of a fluorescence baseline (excitation, 480 ± 20 nm; emission, 540 ± 30 nm), 20 µL (2×) of test compound was added to the cells at 1 s and the response was measured. After 140 s, 10 µL (5×) of an EC20 concentration of agonist (PAM mode) or vehicle (AGO mode) in thallium stimulus buffer (125 mM NaHCO3, 1.8 mM CaSO4, 1 mM MgSO4, 5 mM glucose, 12 mM Tl2SO4, 10 mM HEPES, 0.5% BSA, pH 7.4) was added to the cells, and the response of the cells was measured for an additional 159 s (data were acquired for 300 s total at 0.5 Hz for 140 s and 1 Hz for 160 s). Raw kinetic data were analyzed in a multi-step process: (1) Fluorescence readings for each time point in a well were divided by the fluorescence reading at the initial time point to account for differences in cell number, non-uniform illumination, and dye-loading. (2) The slope value for each kinetic trace was calculated for the time window of 145–155 s, a window occurring directly after the second addition. (3) The average slope was calculated for wells containing vehicle and this value was subtracted from all wells. (4) The vehicle-subtracted slope was normalized to the relevant maximal agonist signal for each assay. […]

Another assay concerns the target Human CB2 (Homo sapiens, UniProt P34972). Nature of the assay: cAMP inhibition assay (HitHunter cAMP XS+, Eurofins) in human CB2 cells. The note with it: for hCB2 cAMP (−) CP55,940 % Max: absence of CP55,940; for hCB2 cAMP (−) CP55,940 % Max / hCB2 cAMP (+) CP55,940 % Max: % of maximal CP55,940 response; for hCB2 cAMP (+) CP55,940 % Max: presence of EC20 CP55,940. Format: cell-based. Here is the method: Assays were performed by Eurofins Discovery (Freemont, CA, USA). cAMP Hunter cell lines were expanded from freezer stocks according to standard procedures. Human CB2 cells were seeded in a total volume of 20 μL into white-walled, 384-well microplates and incubated at 37 °C for the appropriate time prior to testing. cAMP modulation was determined using the DiscoverX HitHunter cAMP XS+ assay. For agonist determination, cells were incubated with samples in the presence of EC80 forskolin to induce a response. Media was aspirated from cells and replaced with 10 μL HBSS/10 mM HEPES. Intermediate dilution of sample stocks was performed to generate 4× sample in assay buffer, and 5 μL of 4× sample was added to cells. Then, 5 μL of 4× EC80 forskolin diluted in HBSS/HEPES was added and incubated at 37 °C for 30 min. The final assay vehicle concentration was 1%. For allosteric determination, cells were pre-incubated with the sample followed by agonist induction at the EC20 concentration. Media was aspirated from cells and replaced with 10 μL HBSS/10 mM HEPES. Intermediate dilution of sample stocks was performed to generate 4× samples in assay buffer. Then, 5 μL of 4× compound was added to the cells and incubated at room temperature or 37 °C for 5 min. Subsequently, 5 μL of 4× EC20 agonist was added to the cells and incubated at 37 °C for 30 min. EC80 forskolin was included.
After appropriate compound incubation, the assay signal was generated by incubation with 5 μL cAMP XS+ Ab reagent, followed by 20 μL cAMP XS+ ED/CL lysis cocktail for one hour at room temperature. Then, 20 μL cAMP XS+ EA reagent was added and incubated for two hours at room temperature. Microplates were read following signal generation with a PerkinElmer Envision^TM instrument for chemiluminescent signal detection.
Compound activity was analyzed using the CBIS data analysis suite (ChemInnovation, San Diego, CA, USA). For agonist mode assays, percentage activity was calculated using the following formula: % Activity = 100% × (1 − (mean RLU of test sample − mean RLU of MAX control)/(mean RLU of vehicle control − mean RLU of MAX control)).
For Gi positive allosteric mode assays, percentage modulation was calculated using the following formula: % Modulation = 100% × (1 − (mean RLU of test sample − mean RLU of MAX control)/(mean RLU of EC20 control − mean RLU of MAX control)).

The mark [1] stands for this setting: hCB2 cAMP (+) CP55,940 pEC50, presence of EC20 CP55,940, EC80 forskolin.
The mark [2] stands for this setting: hCB2 cAMP (−) CP55,940 pEC50, absence of CP55,940, EC80 forskolin.

Chain of Human CB2 (P34972 whole entry): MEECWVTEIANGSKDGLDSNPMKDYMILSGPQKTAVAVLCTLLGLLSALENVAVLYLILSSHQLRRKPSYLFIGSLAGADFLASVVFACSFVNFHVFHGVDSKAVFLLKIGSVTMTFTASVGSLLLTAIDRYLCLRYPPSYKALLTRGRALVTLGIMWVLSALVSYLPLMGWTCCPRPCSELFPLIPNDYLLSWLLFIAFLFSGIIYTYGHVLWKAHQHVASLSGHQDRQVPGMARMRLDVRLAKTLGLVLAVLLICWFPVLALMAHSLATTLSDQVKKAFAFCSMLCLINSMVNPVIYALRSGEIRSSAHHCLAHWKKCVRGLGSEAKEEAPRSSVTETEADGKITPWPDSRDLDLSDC

`O=C(NCC1CCOCC1)c1cnc(Nc2ccc(Cl)cc2Cl)nc1C(F)(F)F` [GW-842,166X, 2-(2,4-dichloroanilino)-N-(oxan-4-ylmethyl)-4-(trifluoromethyl)pyrimidine-5-carboxamide]: the “rCB1 GIRK (−) 2-AG pEC50 ± SEM” value on rCB1 (absence of 2-AG) is “Inactive”. Moreover, the “rCB1 GIRK (+) 2-AG pEC50 ± SEM” value at rCB1 (presence of EC20 2-AG) is listed as “Inactive”. For the same molecule, on Human CB2, the “hCB2 cAMP (−) CP55,940 % Max” value was 120% and the “hCB2 cAMP (+) CP55,940 % Max” value is on record as 119%. For the same molecule, the EC50 on Human CB2 (setting [1]) was 5.13 µM. Further, the EC50 at Human CB2 (setting [2]) was 2.04 µM.

As for `CC1(Cc2ccccc2)COc2cc(C(=O)N3CCCCC3)ccc21` (stereo not drawn) [MDA7, 1-[(3-benzyl-3-methyl-2,3-dihydro-1-benzofuran-6-yl)carbonyl]piperidine], at rCB1 (absence of 2-AG), the “rCB1 GIRK (−) 2-AG % Max ± SEM” value is recorded as 50 ± 2%. At rCB1 (presence of EC20 2-AG), the “rCB1 GIRK (+) 2-AG % Max ± SEM” value was found to be 48 ± 2%. For the same molecule, the EC50 is 0.477 µM at rCB1 (rCB1 GIRK EC50 in absence of 2-AG, absence of 2-AG); 0.395 µM at rCB1 (rCB1 GIRK EC50 in presence of 2-AG, presence of EC20 2-AG); above 10 µM at Human CB2 (setting [1]); above 10 µM on Human CB2 (setting [2]). At Human CB2, the “hCB2 cAMP (−) CP55,940 % Max” value was determined as 108%. For the same molecule, the “hCB2 cAMP (+) CP55,940 % Max” value at Human CB2 was 111%.

Turning to `COc1c(C)c2c(c(O)c1C/C=C(\C)CCC(=O)OCCN1CCOCC1)C(=O)OC2` [Mycophenolate mofetil], on rCB1 (absence of 2-AG), the “rCB1 GIRK (−) 2-AG pEC50 ± SEM” value is listed as below 5.0 and the “rCB1 GIRK (−) 2-AG % Max ± SEM” value is −15 ± 3%. Moreover, on rCB1 (presence of EC20 2-AG), the “rCB1 GIRK (+) 2-AG pEC50 ± SEM” value was below 5.0 and the “rCB1 GIRK (+) 2-AG % Max ± SEM” value is listed as −5.5 ± 1.1%. For the same molecule, the EC50 at rCB1 (presence of EC20 2-AG, read-out: rCB1 GIRK (+) 2-AG pEC50 ± SEM (converted)) was above 10 µM. For the same molecule, the “hCB2 cAMP (−) CP55,940 pEC50” value on Human CB2 (absence of CP55,940, EC80 forskolin) was below 5.0. On Human CB2, the “hCB2 cAMP (−) CP55,940 % Max” value turned out to be 46% and the “hCB2 cAMP (+) CP55,940 % Max” value came to 41%. Moreover, the EC50 on Human CB2 (presence of EC20 CP55,940, EC80 forskolin, read-out: hCB2 cAMP (+) CP55,940 pEC50 (converted)) was above 10 µM.

With `COc1c(C)c2c(c(O)c1C/C=C(\C)CCC(=O)O)C(=O)OC2` [Mycophenolic acid], the “rCB1 GIRK (+) 2-AG pEC50 ± SEM” value at rCB1 (presence of EC20 2-AG) is recorded as “Inactive”.
